Test results published in patent publication US8669360B2, “Methods of converting amorphous drug substance into crystalline form” (Boston Scientific Scimed, Inc., priority 2011, dated 2014).

Key:
[1] = Approximate solubility of amorphous everolimus in solvents; assay type: physicochemical; details: room temperature
Procedure: Approximate solubilities of amorphous everolimus were determined by adding the drug gradually with stirring at room temperature to a fixed volume of the solvent until solid remained visible.

[2] = Comparative aqueous solubility of amorphous and crystalline everolimus (FIG. 3); assay type: physicochemical; details: aqueous solubility at body temperature (37° C.)
Source text: FIG. 3 is a graph showing the relative water solubilities of the amorphous and crystalline forms of everolimus.

## CO[C@H]1C[C@@H]2CC[C@@H](C)[C@@](O)(O2)C(=O)C(=O)N2CCCC[C@H]2C(=O)O[C@H]([C@H](C)C[C@@H]2CC[C@@H](OCCO)[C@H](OC)C2)CC(=O)[C@H](C)/C=C(\C)[C@@H](O)[C@@H](OC)C(=O)[C@H](C)C[C@H](C)/C=C/C=C/C=C/1C [Amorphous Everolimus, 40-O-(2-Hydroxyethyl)rapamycin]
[1]; solvent ACN/water 3:2 v/v
  Amorphous Everolimus Solubilities: ~52 mg/mL
[1]; solvent ACN
  Amorphous Everolimus Solubilities: ~100 mg/mL
[1]; solvent Acetone
  Amorphous Everolimus Solubilities: ~100 mg/mL
[1]; solvent DCM
  Amorphous Everolimus Solubilities: ~46 mg/mL
[1]; solvent DMF/DCM w/w
  Amorphous Everolimus Solubilities: ~142 mg/mL
[1]; solvent DMF/EtOAc w/w
  Amorphous Everolimus Solubilities: ~119 mg/mL
[1]; solvent DMF/THF w/w
  Amorphous Everolimus Solubilities: ~112 mg/mL
[1]; solvent DMF
  Amorphous Everolimus Solubilities: ~49 mg/mL
[1]; solvent EtOH
  Amorphous Everolimus Solubilities: ~100 mg/mL
[1]; solvent IPA
  Amorphous Everolimus Solubilities: ~15 mg/mL
[1]; solvent MEK
  Amorphous Everolimus Solubilities: ~70 mg/mL
[1]; solvent MTBE
  Amorphous Everolimus Solubilities: ~62 mg/mL
[1]; solvent THF
  Amorphous Everolimus Solubilities: ~67 mg/mL
[1]; solvent ethyl acetate
  Amorphous Everolimus Solubilities: ~100 mg/mL
[1]; solvent m-xylene
  Amorphous Everolimus Solubilities: ~76 mg/mL
[1]; solvent n-heptane
  Amorphous Everolimus Solubilities: ~0.5 mg/mL
[1]; solvent p-dioxane
  Amorphous Everolimus Solubilities: ~58 mg/mL
[1]; solvent water
  Amorphous Everolimus Solubilities: ~0.1 mg/mL

## CO[C@H]1C[C@@H]2CC[C@@H](C)[C@@](O)(O2)C(=O)C(=O)N2CCCC[C@H]2C(=O)O[C@H]([C@H](C)C[C@@H]2CC[C@@H](OCCO)[C@H](OC)C2)CC(=O)[C@H](C)/C=C(\C)[C@@H](O)[C@@H](OC)C(=O)[C@H](C)C[C@H](C)/C=C/C=C/C=C/1C [crystalline everolimus, 40-O-(2-Hydroxyethyl)rapamycin]
[2]
  Solubility of crystalline everolimus, times lower than that of amorphous everolimus: about 25 times
